Values of other authors, collected in patent US11793840B2, “Nano-armored single cell product for treating Parkinson's disease through bacteria and a preparation method thereof” (Tangyi Holdings(Shenzhen) Limited, priority 2021, dated 2023).

in-vivo terminal elimination half-life (in vivo): 25.1 min
oral bioavailability (oral administration of GABA): 9.81%
SMILES: NCCCC(=O)O [GABA, Gamma-aminobutyric acid]
